melting point | SMILES
126 to 128 °C | O=C1O[C@@H](CNC(=S)C(F)F)CN1c1cc(F)c(C2CCS(=O)(=O)CC2)c(F)c1
146 to 147 °C | O=C1O[C@@H](CNC(=S)C(F)F)CN1c1ccc(N2CCS(=O)(=O)CC2)c(F)c1
174 to 176 °C | O=C1O[C@@H](CNC(=S)C(F)F)CN1c1ccc(C2CCS(=O)(=O)CC2)cc1
168 to 169 °C | O=C1O[C@@H](CNC(=S)C(F)F)CN1c1ccc(C2CCS(=O)(=O)CC2)c(F)c1
88 to 90 °C | O=C1O[C@@H](CNC(=S)C(F)F)CN1c1cc(F)c(N2CCS(=O)(=O)CC2)c(F)c1
128 to 130 °C | O=C1O[C@@H](CNC(=S)C(F)F)CN1c1ccc(N2CCCS(=O)(=O)CC2)c(F)c1
155 to 156 °C | O=C1O[C@@H](CNC(=S)C(F)F)CN1c1ccc(N2CC[S+]([O-])CC2)cc1
126 to 127 °C | O=C1O[C@@H](CNC(=S)C(F)F)CN1c1ccc(N2CCS(=O)(=O)CC2)cc1
